In US10167262B2, “Herbicidal substituted 3-arylpyrazoles” (FMC CORPORATION, priority 2014, dated 2019):

Experiments:
Type in all cases: in vivo
[1] = system: barnyardgrass (Echinochloa crus-galli); assay: Test A pre-/postemergence greenhouse herbicide test, visual injury rating 0-100
In short: (§1)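 Pre + post at same time; soil = loam/sand. Post stage 1–2 leaf, 2–10 cm. Formulation: non-phytotoxic solvent mix w/ surfactant. Greenhouse ~10 d, visual rating vs untreated, 0 (no effect)–100 (complete control).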

corn (Zea mays) = assay: as above
In short: as §1

[2] = system: giant foxtail (Setaria faberii); assay: as above
In short: as §1

[3] = system: large (Lg) crabgrass (Digitaria sanguinalis); assay: as above
In short: as §1

[4] = system: morningglory (Ipomoea spp.); assay: as above
In short: as §1

[5] = system: pigweed (Amaranthus retroflexus); assay: as above
In short: as §1

[6] = system: velvetleaf (Abutilon theophrasti); assay: as above
In short: as §1

[7] = system: wheat (Triticum aestivum); assay: as above
In short: as §1

[8] = system: barnyardgrass (Echinochloa crus-galli); assay: Test B flooded paddy test, plant response rating 0-100; conditions: Flood, 250 g ai/ha; scale 0 to 100 (0 no effect, 100 complete control); 13 to 15 days
In short: (§2)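 Pots were flooded to 3 cm above the soil surface at treatment, compound applied directly to the paddy water, and that depth held throughout. Plants were kept in a greenhouse for 13 to 15 days, then visually rated against untreated controls.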

[9] = system: ducksalad (Heteranthera limosa); assay: as above; conditions: Flood, 250 g ai/ha; scale 0 to 100 (0 no effect, 100 complete control); 13 to 15 days
In short: as §2

rice (Oryza sativa) = assay: as above; conditions: Flood, 250 g ai/ha; scale 0 to 100 (0 no effect, 100 complete control); 13 to 15 days
In short: as §2

[10] = system: sedge, umbrella (small-flower umbrella sedge, Cyperus difformis); assay: as above; conditions: Flood, 250 g ai/ha; scale 0 to 100 (0 no effect, 100 complete control); 13 to 15 days
In short: as §2

| Compound | Plant response rating (0 to 100 scale), Barnyardgrass ([1]; Postemergence, 125 g ai/ha) | Plant response rating (0 to 100 scale), Barnyardgrass ([1]; Postemergence, 500 g ai/ha) | Barnyardgrass plant response rating (0 = no effect, 100 = complete control) ([1]; Preemergence, 125 g ai/ha) | Plant response rating (0 to 100 scale), Barnyardgrass ([1]; Preemergence, 500 g ai/ha) | Plant response rating (0 to 100 scale), Corn (corn (Zea mays); Postemergence, 125 g ai/ha) | Plant response rating (0 to 100 scale), Corn (corn (Zea mays); Postemergence, 500 g ai/ha) | Corn plant response rating (0 = no effect, 100 = complete control) (corn (Zea mays); Preemergence, 125 g ai/ha) | Plant response rating (0 to 100 scale), Corn (corn (Zea mays); Preemergence, 500 g ai/ha) | Plant response rating (0 to 100 scale), Foxtail, Giant ([2]; Postemergence, 125 g ai/ha) | Plant response rating (0 to 100 scale), Foxtail, Giant ([2]; Postemergence, 500 g ai/ha) | Foxtail, Giant plant response rating (0 = no effect, 100 = complete control) ([2]; Preemergence, 125 g ai/ha) | Plant response rating (0 to 100 scale), Foxtail, Giant ([2]; Preemergence, 500 g ai/ha) | Plant response rating (0 to 100 scale), Crabgrass, Large ([3]; Postemergence, 125 g ai/ha) | Plant response rating (0 to 100 scale), Crabgrass, Large ([3]; Postemergence, 500 g ai/ha) | Plant response rating (0 to 100 scale), Crabgrass, Large ([3]; Preemergence, 500 g ai/ha) | Plant response rating (0 to 100 scale), Morningglory ([4]; Postemergence, 125 g ai/ha) | Plant response rating (0 to 100 scale), Morningglory ([4]; Postemergence, 500 g ai/ha) | Morningglory plant response rating (0 = no effect, 100 = complete control) ([4]; Preemergence, 125 g ai/ha) | Plant response rating (0 to 100 scale), Morningglory ([4]; Preemergence, 500 g ai/ha) | Plant response rating (0 to 100 scale), Pigweed ([5]; Postemergence, 125 g ai/ha) | also measured |
| --- | --- | --- | --- | --- | --- | --- | --- | --- | --- | --- | --- | --- | --- | --- | --- | --- | --- | --- | --- | --- | --- |
| O=C(c1cncc(F)c1)c1c[nH]nc1-c1cc(F)cc(Cl)c1 [Compound 22] | 0 | 0 | 0 | 0 | 0 | 0 | 0 | 0 | 0 | 0 | 0 | 0 | 0 | 0 | 0 | 0 | 0 | 0 | 0 | 70 | Crabgrass, Large plant response rating (0 = no effect, 100 = complete control) ([3]; Preemergence, 125 g ai/ha): 0; Plant response rating (0 to 100 scale), Pigweed ([5]; Postemergence, 500 g ai/ha): 100; Pigweed plant response rating (0 = no effect, 100 = complete control) ([5]; Preemergence, 125 g ai/ha): 60; Plant response rating (0 to 100 scale), Pigweed ([5]; Preemergence, 500 g ai/ha): 100; Plant response rating (0 to 100 scale), Velvetleaf ([6]; Postemergence, 125 g ai/ha): 60; Plant response rating (0 to 100 scale), Velvetleaf ([6]; Postemergence, 500 g ai/ha): 80; Velvetleaf plant response rating (0 = no effect, 100 = complete control) ([6]; Preemergence, 125 g ai/ha): 30; Plant response rating (0 to 100 scale), Velvetleaf ([6]; Preemergence, 500 g ai/ha): 60; Plant response rating (0 to 100 scale), Wheat ([7]; Postemergence, 125 g ai/ha): 0; Plant response rating (0 to 100 scale), Wheat ([7]; Postemergence, 500 g ai/ha): 0; Wheat plant response rating (0 = no effect, 100 = complete control) ([7]; Preemergence, 125 g ai/ha): 0; Plant response rating (0 to 100 scale), Wheat ([7]; Preemergence, 500 g ai/ha): 0; Plant response rating, Barnyardgrass [8]: 0; Plant response rating, Ducksalad [9]: 0; Plant response rating, Rice (rice (Oryza sativa)): 0; Plant response rating, Sedge, Umbrella [10]: 0 |
| O=C(c1cncc(F)c1)c1c[nH]nc1-c1cc(F)cc(F)c1 [Compound 23] | 0 | 0 | 0 | 0 | 0 | 0 | 0 | 0 | 0 | 0 | 0 | 0 | 0 | 0 | 0 | 0 | 0 | 0 | 0 | 50 | Plant response rating (0 to 100 scale), Pigweed ([5]; Postemergence, 500 g ai/ha): 60; Pigweed plant response rating (0 = no effect, 100 = complete control) ([5]; Preemergence, 125 g ai/ha): 70; Plant response rating (0 to 100 scale), Pigweed ([5]; Preemergence, 500 g ai/ha): 100; Plant response rating (0 to 100 scale), Velvetleaf ([6]; Postemergence, 125 g ai/ha): 0; Plant response rating (0 to 100 scale), Velvetleaf ([6]; Postemergence, 500 g ai/ha): 40; Velvetleaf plant response rating (0 = no effect, 100 = complete control) ([6]; Preemergence, 125 g ai/ha): 60; Plant response rating (0 to 100 scale), Velvetleaf ([6]; Preemergence, 500 g ai/ha): 90; Plant response rating (0 to 100 scale), Wheat ([7]; Postemergence, 125 g ai/ha): 0; Plant response rating (0 to 100 scale), Wheat ([7]; Postemergence, 500 g ai/ha): 0; Wheat plant response rating (0 = no effect, 100 = complete control) ([7]; Preemergence, 125 g ai/ha): 0; Plant response rating (0 to 100 scale), Wheat ([7]; Preemergence, 500 g ai/ha): 0; Plant response rating, Barnyardgrass [8]: 0; Plant response rating, Ducksalad [9]: 0; Plant response rating, Rice (rice (Oryza sativa)): 0; Plant response rating, Sedge, Umbrella [10]: 0 |
| CCn1cc(C(=O)c2cccs2)c(-c2cc(F)cc(Cl)c2)n1 [Compound 24] | 0 | 10 | 0 | 0 | 0 | 0 | 0 | 0 | 0 | 10 | 0 | 0 | 10 | 20 | 20 | 0 | 10 | 0 | 0 | 80 | Crabgrass, Large plant response rating (0 = no effect, 100 = complete control) ([3]; Preemergence, 125 g ai/ha): 0; Plant response rating (0 to 100 scale), Pigweed ([5]; Postemergence, 500 g ai/ha): 100; Pigweed plant response rating (0 = no effect, 100 = complete control) ([5]; Preemergence, 125 g ai/ha): 60; Plant response rating (0 to 100 scale), Pigweed ([5]; Preemergence, 500 g ai/ha): 80; Plant response rating (0 to 100 scale), Velvetleaf ([6]; Postemergence, 125 g ai/ha): 40; Plant response rating (0 to 100 scale), Velvetleaf ([6]; Postemergence, 500 g ai/ha): 90; Velvetleaf plant response rating (0 = no effect, 100 = complete control) ([6]; Preemergence, 125 g ai/ha): 0; Plant response rating (0 to 100 scale), Velvetleaf ([6]; Preemergence, 500 g ai/ha): 0; Plant response rating (0 to 100 scale), Wheat ([7]; Postemergence, 125 g ai/ha): 0; Plant response rating (0 to 100 scale), Wheat ([7]; Postemergence, 500 g ai/ha): 0; Wheat plant response rating (0 = no effect, 100 = complete control) ([7]; Preemergence, 125 g ai/ha): 0; Plant response rating (0 to 100 scale), Wheat ([7]; Preemergence, 500 g ai/ha): 0; Plant response rating, Barnyardgrass [8]: 0; Plant response rating, Ducksalad [9]: 0; Plant response rating, Rice (rice (Oryza sativa)): 0; Plant response rating, Sedge, Umbrella [10]: 0 |
| O=C(c1ccccc1)c1cn(C(=O)C2CC2)nc1-c1cc(Cl)cc(Cl)c1 [Compound 26] | 0 | 0 | 0 | 0 | 0 | 0 | 0 | 0 | 0 | 0 | 0 | 0 | 0 | 0 | 0 | 0 | 0 | 0 | 0 | 40 | Crabgrass, Large plant response rating (0 = no effect, 100 = complete control) ([3]; Preemergence, 125 g ai/ha): 0; Plant response rating (0 to 100 scale), Pigweed ([5]; Postemergence, 500 g ai/ha): 80; Pigweed plant response rating (0 = no effect, 100 = complete control) ([5]; Preemergence, 125 g ai/ha): 0; Plant response rating (0 to 100 scale), Pigweed ([5]; Preemergence, 500 g ai/ha): 0; Plant response rating (0 to 100 scale), Velvetleaf ([6]; Postemergence, 125 g ai/ha): 50; Plant response rating (0 to 100 scale), Velvetleaf ([6]; Postemergence, 500 g ai/ha): 80; Velvetleaf plant response rating (0 = no effect, 100 = complete control) ([6]; Preemergence, 125 g ai/ha): 0; Plant response rating (0 to 100 scale), Velvetleaf ([6]; Preemergence, 500 g ai/ha): 0; Plant response rating (0 to 100 scale), Wheat ([7]; Postemergence, 125 g ai/ha): 0; Plant response rating (0 to 100 scale), Wheat ([7]; Postemergence, 500 g ai/ha): 0; Wheat plant response rating (0 = no effect, 100 = complete control) ([7]; Preemergence, 125 g ai/ha): 0; Plant response rating (0 to 100 scale), Wheat ([7]; Preemergence, 500 g ai/ha): 0; Plant response rating, Barnyardgrass [8]: 0; Plant response rating, Ducksalad [9]: 0; Plant response rating, Rice (rice (Oryza sativa)): 0; Plant response rating, Sedge, Umbrella [10]: 0 |
